# Data published in US10239863B2, “Factor XIa inhibitors” (Merck Sharp & Dohme Corp., priority 2013, dated 2019).
# Structures can show the parent of a compound that is named as a salt.
# Biological target: T1, purified human Factor XIa (Homo sapiens, UniProt P03951)
# T1 construct: Determinations were made using purified human Factor XIa; purchased Sekisui Diagnostics
# Assay: Factor XIa Assay (hydrolysis of fluorogenic substrate Z-Gly-Pro-Arg-AFC)
# Type: biochemical
# Conditions: purified human Factor XIa 40 pM; Z-Gly-Pro-Arg-AFC 100 μM; 50 mM HEPES pH 7.4; read-out: Factor XIa Inhibition (IC50 (nM))
# Protocol: The effectiveness of compounds of the present invention as inhibitors of Coagulation Factor XIa can be determined using a relevant purified serine protease, and an appropriate synthetic substrate. The rate of hydrolysis of the chromogenic or fluorogenic substrate by the relevant serine protease was measured both in the absence and presence of compounds of the present invention. Assays were conducted at room temperature or at 37° C. […] A decrease in the rate of fluorescence change in the presence of inhibitor is indicative of enzyme inhibition. Such methods are known to one skilled in the art. […]
# Factor XIa determinations were made in 50 mM HEPES buffer at pH 7.4 containing 150 mM NaCl, 5 mM CaCl2, and 0.1% PEG 8000 (polyethylene glycol; JT Baker or Fisher Scientific). Determinations were made using purified human Factor XIa at a final concentration of 40 pM (Sekisui Diagnostics) and the synthetic substrate, Z-Gly-Pro-Arg-AFC, TFA salt (Sigma #C0980) at a concentration of 100 μM.
# Times required to achieve equilibration between enzyme and inhibitor were determined in control experiments. Initial velocities of product formation in the absence (Vo) or presence of inhibitor (Vi) were measured. Assuming competitive inhibition, and that unity is negligible compared Km/[S], [I]/e, and [I]/e (where [S], [I], and e respectively represent the total concentrations, of substrate, inhibitor and enzyme), the equilibrium constant (Ki) for dissociation of the inhibitor from the enzyme can be obtained from the dependence of Vo/Vi on [I] shown in the following equation.
# T1 sequence (P03951 388-625 limits assumed): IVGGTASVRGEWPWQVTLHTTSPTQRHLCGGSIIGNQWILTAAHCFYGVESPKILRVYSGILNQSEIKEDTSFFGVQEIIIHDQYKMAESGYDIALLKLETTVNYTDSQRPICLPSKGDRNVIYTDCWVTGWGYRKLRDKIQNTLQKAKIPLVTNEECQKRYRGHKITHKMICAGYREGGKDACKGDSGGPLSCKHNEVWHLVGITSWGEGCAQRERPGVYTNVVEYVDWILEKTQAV
# T1 sequence (P03951 19-387 partner limits assumed): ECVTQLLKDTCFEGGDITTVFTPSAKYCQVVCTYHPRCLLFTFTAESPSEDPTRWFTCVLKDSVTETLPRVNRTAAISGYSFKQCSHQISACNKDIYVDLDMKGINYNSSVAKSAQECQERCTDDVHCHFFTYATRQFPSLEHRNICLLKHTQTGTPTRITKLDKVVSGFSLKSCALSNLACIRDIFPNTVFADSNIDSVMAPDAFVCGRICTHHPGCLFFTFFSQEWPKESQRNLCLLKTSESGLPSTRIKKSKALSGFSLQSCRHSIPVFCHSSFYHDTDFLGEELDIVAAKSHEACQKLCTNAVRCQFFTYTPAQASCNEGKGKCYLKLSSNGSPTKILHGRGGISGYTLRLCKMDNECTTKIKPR
row,Compound,IC50 [nM]
1,"NC1CCN([C@@H]2C[C@H](c3ccccc3)[C@H](C(=O)Nc3ccc(C(=O)O)cc3)N(C(=O)/C=C/c3cc(Cl)ccc3-n3cnnn3)C2)CC1 [Example 7, 4-({[(3′R,5′R,6′R)-4-amino-1′-{(2E)-3-[5-chloro-2-(1H-tetrazol-1-yl)phenyl]prop-2-enoyl}-5′-phenyl-1,3′-bipiperidin-6′-yl]carbonyl}amino)benzoic acid]",0.4
2,"O=C(O)c1ccc(NC(=O)C2C(c3ccccc3)CC(N3CCNCC3)CN2C(=O)/C=C/c2cc(Cl)ccc2-n2cnnn2)cc1 (centres unmarked) [Example 2, 4-{[(1-{(2E)-3-[5-chloro-2-(1H-tetrazol-1-yl)phenyl]prop-2-enoyl}-3-phenyl-5-piperazin-1-ylpiperidin-2-yl)carbonyl]amino}benzoic acid]",11.4
3,"O=C(O)c1ccc(NC(=O)[C@@H]2[C@H](c3ccccc3)C[C@H](OC3CCNCC3)CN2C(=O)/C=C/c2cc(Cl)ccc2-n2cnnn2)cc1 (single isomer, unassigned) [Example 9]",2.5
4,"O=C(O)c1ccc(NC(=O)[C@@H]2[C@H](c3ccccc3)C[C@H](OC3CCNCC3)CN2C(=O)/C=C/c2cc(Cl)ccc2-n2cnnn2)cc1 (racemic) [Example 8, 4-(1-((E)-3-(5-Chloro-2-(1H-tetrazol-1-yl)phenyl)acryloyl)-3-phenyl-5-(piperidin-4-yloxy)piperidine-2-carboxamido)benzoic acid]",4.7
5,"COC(=O)Nc1ccc(-c2c[nH]c(C3C(c4ccc(F)cc4)CC(N4CCC(N)CC4)CN3C(=O)/C=C/c3cc(Cl)ccc3-n3cnnn3)n2)cc1 (single isomer, unassigned) [Example 13, Methyl (4-{2-[4-amino-1′-{(2E)-3-[5-chloro-2-(1H-tetrazol-1-yl)phenyl]prop-2-enoyl}-5′-(4-fluorophenyl)-1,3′-bipiperidin-6′-yl]-1H-imidazol-4-yl}phenyl)-carbamate]",1.7
6,"N#Cc1ccc(-c2cnc(C3C(c4ccc(F)cc4)CC(N4CCC(N)CC4)CN3C(=O)/C=C/c3c(C(F)(F)F)ccc(Cl)c3F)[nH]2)cc1 (centres unmarked) [Example 17, 4-{2-[4-amino-1′-{(2E)-3-[3-chloro-2-fluoro-6-(trifluoromethyl)phen-yl]prop-2-enoyl}-5′-(4-fluorophenyl)-1,3′-bipiperidin-6′-yl]-1H-imidazol-5-yl}benzonitrile]",889
7,"N#Cc1ccc(-c2cnc(C3C(c4ccc(F)cc4)CC(N4CCC(N)CC4)CN3C(=O)/C=C/c3c(C(F)(F)F)ccc(Cl)c3F)[nH]2)cc1 (centres unmarked) [Example 16, 4-{2-[4-amino-1′-{(2E)-3-[3-chloro-2-fluoro-6-(trifluoromethyl)phen-yl]prop-2-enoyl}-5′-(4-fluorophenyl)-1,3′-bipiperidin-6′-yl]-1H-imidazol-5-yl}benzonitrile]",35.6
8,"NC1CCN(C2CC(c3ccc(F)cc3)C(c3nc(-c4cccnc4)c[nH]3)N(C(=O)/C=C/c3cc(Cl)ccc3-n3cnnn3)C2)CC1 (centres unmarked) [Example 14, 1′-{(2E)-3-[5-chloro-2-(1H-tetrazol-1-yl)phenyl]prop-2-enoyl}-5′-(4-fluorophenyl)-6′-(4-pyridin-3-yl-1H-imidazol-2-yl)-1,3′-bipiperidin-4-amine]",139
9,"COC(=O)Nc1ccc(-c2c[nH]c(C3C(c4ccc(F)cc4)CC(N4CCC(N)CC4)CN3C(=O)/C=C/c3c(F)ccc(Cl)c3F)n2)cc1 (centres unmarked) [Example 21, methyl [4-(2-{4-amino-1′-[(2E)-3-(3-chloro-2,6-difluorophenyl)prop-2-enoyl]-5′-(4-fluorophenyl)-1,3′-bipiperidin-6′-yl}-1H-imidazol-4-yl)phenyl]carbamate]",407
10,"COC(=O)Nc1ccc(-c2cnc(C3C(c4ccc(F)cc4)CC(N4CCC(N)CC4)CN3C(=O)/C=C/c3c(C(F)(F)F)ccc(Cl)c3F)[nH]2)cc1 (centres unmarked) [Example 19, methyl (4-{2-[4-amino-1′-{(2E)-3-[3-chloro-2-fluoro-6-(trifluorometh-yl)phenyl]prop-2-enoyl}-5′-(4-fluorophenyl)-1,3′-bipiperidin-6′-yl]-1H-imidazol-5-yl}phenyl)carbamate]",67.8
11,"NC1CCN([C@H]2C[C@@H](c3ccc(F)cc3)[C@@H](c3nc(-c4cccnc4)c[nH]3)N(C(=O)/C=C/c3cc(Cl)ccc3-n3cnnn3)C2)CC1 [Example 15, (3′S,5′S,6′S)-1′-{(2E)-3-[5-chloro-2-(1H-tetrazol-1-yl)phenyl]prop-2-enoyl}-5′-(4-fluorophenyl)-6′-(4-pyridin-3-yl-1H-imidazol-2-yl)-1,3′-bipiperidin-4-amine]",82.1
12,"COC(=O)Nc1ccc(-c2c[nH]c([C@@H]3[C@H](C4CC4)C[C@H](N4CCC(N)CC4)CN3C(=O)/C=C/c3cc(Cl)ccc3-n3cnnn3)n2)cc1 [Example 22, methyl (4-{2-[(3′S,5′S,6′S)-4-amino-1′-{(2E)-3-[5-chloro-2-(1H-tetrazol-1-yl)phenyl]prop-2-enoyl}-5′-cyclopropyl-1,3′-bipiperidin-6′-yl]-1H-imidazol-4-yl}phenyl)carbamate]",671
13,"O=C(O)c1ccc(NC(=O)[C@@H]2[C@H](OC3CCNCC3)C[C@H](c3ccccc3)CN2C(=O)/C=C/c2cc(Cl)ccc2-n2cnnn2)cc1 (racemic) [Example 12, 4-(1-((E)-3-(5-chloro-2-(1H-tetrazol-1-yl)phenyl)acryloyl)-5-phenyl-3-(piperidin-4-yloxy)piperidine-2-carboxamido)benzoic acid]",155
14,"O=C(O)c1ccc(NC(=O)[C@H]2[C@@H](c3ccccc3)C[C@@H](OC3CCNCC3)CN2C(=O)/C=C/c2cc(Cl)ccc2-n2cnnn2)cc1 [Example 10, 4-((2R,3R,5R)-1-((E)-3-(5-chloro-2-(1H-tetrazol-1-yl)phenyl)acryloyl)-3-phenyl-5-(piperidin-4-yloxy)piperidine-2-carboxamido)benzoic acid]",306

# The next lines start with the values.
row,IC50 [nM],Compound
1,579,"C[C@@H]1C[C@H](C2CCNCC2)CN(C(=O)/C=C/c2cc(Cl)ccc2-n2cnnn2)[C@@H]1C(=O)Nc1ccc(C(=O)O)cc1 [Example 24, 4-((3R,5R,6S)-1-((E)-3-(5-chloro-2-(1H-tetrazol-1-yl)phenyl)acryloyl)-5-methyl-[3,4′-bipiperidine]-6-carboxamido)benzoic acid]"
2,40.9,"O=C(Nc1ccc2[nH]ncc2c1)[C@@H]1[C@H](c2ccc(F)cc2)C[C@H](N2CCNCC2)CN1C(=O)/C=C/c1cc(Cl)ccc1-n1cnnn1 [Example 31, (2S,3S,5S)-1-{(2E)-3-[5-chloro-2-(1H-tetrazol-1-yl)phenyl]prop-2-enoyl}-3-(4-fluorophenyl)-N-1H-indazol-5-yl-5-piperazin-1-ylpiperidine-2-carboxamide]"
3,640,"O=C(O)c1ccc(NC(=O)[C@@H]2[C@H](c3ccccc3)C[C@H](C3CCNCC3)CN2C(=O)/C=C/c2cc(Cl)ccc2-n2cnnn2)cc1 (single isomer, unassigned) [Example 23, trifluoroacetic acid salt]"
4,81.1,"O=C(Nc1ccc2[nH]ncc2c1)[C@@H]1[C@H](c2ccc(F)cc2)C[C@H](N2CCOCC2)CN1C(=O)/C=C/c1cc(Cl)ccc1-n1cnnn1 [Example 29, (2S,3S,5S)-1′-{(2E)-3-[5-Chloro-2-(1H-tetrazol-1-yl)phenyl]prop-2-enoyl}-3-(4-fluorophenyl)-N-1H-indazol-5-yl-5-morpholin-4-ylpiperidine-2-carboxamide]"
5,710,"COC(=O)Nc1ccc(-c2c[nH]c(C3C(c4ccc(F)cc4)CC(C4CCNCC4)CN3C(=O)/C=C/c3cc(Cl)ccc3-n3cnnn3)n2)cc1 (centres unmarked) [Example 27, methyl (4-{2-[1-{(2E)-3-[5-chloro-2-(1H-tetrazol-1-yl)phenyl]prop-2-enoyl}-5-(4-fluorophenyl)-3,4′-bipiperidin-6-yl]-1H-imidazol-4-yl}phenyl)car-bamate]"
6,652,"COC(=O)Nc1ccc(-c2c[nH]c([C@@H]3[C@H](C4CC4)C[C@H](C4CCN(S(C)(=O)=O)CC4)CN3C(=O)/C=C/c3cc(Cl)ccc3-n3cnnn3)n2)cc1 (single isomer, unassigned) [Example 28]"
7,72.2,"CC(=O)N1CCN([C@H]2C[C@@H](c3ccc(F)cc3)[C@@H](C(=O)Nc3ccc4[nH]ncc4c3)N(C(=O)/C=C/c3cc(Cl)ccc3-n3cnnn3)C2)CC1 [Example 32, (2S,3S,5S)-5-(4-acetylpiperazin-1-yl)-1-{(2E)-3-[5-chloro-2-(1H-tetrazol-1-yl)phenyl]prop-2-enoyl}-3-(4-fluorophenyl)-N-1H-indazol-5-ylpiperidine-2-carboxamide]"
8,767,"O=C(Nc1ccc2[nH]ncc2c1)[C@H]1[C@@H](c2ccc(F)cc2)C[C@@H](N2CCNCC2)CN1C(=O)/C=C/c1cc(Cl)ccc1-n1cnnn1 [Example 30, (2R,3R,5R)-1-{(2E)-3-[5-chloro-2-(1H-tetrazol-1-yl)phenyl]prop-2-enoyl}-3-(4-fluorophenyl)-N-1H-indazol-5-yl-5-piperazin-1-ylpiperidine-2-carboxamide]"
9,519,"C[C@@H]1C[C@H](C2CCNCC2)CN(C(=O)c2ccc(CN)c(C3CC3)c2)[C@@H]1C(=O)Nc1ccc(C(=O)O)cc1 [Example 25, 4-((3R,5R,6S)-1-(4-(aminomethyl)-3-cyclopropylbenzoyl)-5-methy-1-[3,4′-bipiperidine]-6-carboxamido) benzoic acid]"
